Reference: patent US8293764B2, “Compositions and methods for disruption of BRCA2-Rad51 interaction” (The Regents of the University of California, priority 2004, dated 2012)
Peptide text beside a SMILES is read from it. * marks the point of attachment. Cbz = O=C(OCc1ccccc1)*

Test system: Rad51 in MCF-7 cells
Assay: Rad51 stability assay with cyclohexamide
Type: cell-based
Conditions: 1 μM MG132, IBR2 treated and control cells
Excerpt: To examine the impact of IBR2 on Rad51 protein expression, IBR2 treated MCF-7 cells was examined by straight western blot probed with a panel of antibodies against BRCA2, Rad51, Rad50, p84 and Rb. […] Consistent with our FACS analysis (FIG. 4A), the hypo-phosphorylated form of Rb, a marker for G1 phase, was the major form observed in the later time points, further confirming that IBR2 arrests cells at G1 phase (FIG. 4A). It has been reported that BRCA2 level is cell cycle dependent, which expresses low in G1 phase and peaks at G1/S boundary. Therefore the decreased level of BRCA2 in IBR2 treated cells may be due to G1 phase arrest. Different from BRCA2 protein, Rad51 protein is expressed constant throughout the cell cycle in MCF-7 cells (data not shown). Therefore, loss of Rad51 protein may be the direct effect of IBR2 treatment instead of the consequence of G1 arrest. […]
Western blot analysis: Cells were treated with […] or 50 μg/ml cycloheximide (CHX) or 1 μM MG132 and harvested at different time points for western blot analysis. […] The intensity of bands was quantified by densitometry using Labworks 4.5 software. The relative value of the band intensity was calculated with respect to that of untreated sample after normalization with the p84 signal.

## CC(C)C[C@@H](C=O)NC(=O)[C@H](CC(C)C)NC(=O)[C@H](CC(C)C)NC(=O)OCc1ccccc1 [MG132, reference compound] (Cbz-Leu-Leu-Leu-aldehyde)
  half-life of Rad51 with addition of MG132: prolonged
